Data published in ChEMBL document CHEMBL1201862, “PubChem BioAssay data set” (2004).
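Briefly, cells in 96-well plates were exposed to five compound concentrations for 48 h, and endpoints were estimated by linear interpolation. GI50: concentration for 50% inhibition of growth.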 Active and inactive are the calls of the source. No stated cut-off is given here; in the data, active = GI50 up to about 1.1 µM and inactive = higher.

Assays:
Assay in all cases: NCI anticancer screen, dose series, 48 h
786-0 = system: 786-0
A498 = system: A498
A549 = system: A549
ACHN = system: ACHN
BT-549 = system: BT-549
CAKI-1 = system: CAKI-1
COLO 205 = system: COLO 205
DU-145 = system: DU-145
EKVX = system: EKVX
HCC 2998 = system: HCC 2998
HCT-116 = system: HCT-116
HCT-15 = system: HCT-15
HL-60 = system: HL-60
HOP-62 = system: HOP-62
HOP-92 = system: HOP-92
HT-29 = system: HT-29
Hs-578T = system: Hs-578T
IGROV-1 = system: IGROV-1
K562 = system: K562
KM12 = system: KM12
LOX IMVI = system: LOX IMVI
M14 = system: M14
MCF7 = system: MCF7
MDA-MB-231 = system: MDA-MB-231
MDA-MB-435 = system: MDA-MB-435
MDA-N = system: MDA-N
MOLT-4 = system: MOLT-4
Malme-3M = system: Malme-3M
NCI-H226 = system: NCI-H226
NCI-H23 = system: NCI-H23
NCI-H460 = system: NCI-H460
NCI-H522 = system: NCI-H522
NCI/ADR-RES = system: NCI/ADR-RES
OVCAR-3 = system: OVCAR-3
OVCAR-4 = system: OVCAR-4
OVCAR-5 = system: OVCAR-5
OVCAR-8 = system: OVCAR-8
PC-3 = system: PC-3
RXF 393 = system: RXF 393
SF-268 = system: SF-268
SF-295 = system: SF-295
SF-539 = system: SF-539
SK-MEL-28 = system: SK-MEL-28
SK-MEL-2 = system: SK-MEL-2
SK-MEL-5 = system: SK-MEL-5
SK-OV-3 = system: SK-OV-3
SN12C = system: SN12C
SNB-19 = system: SNB-19
SNB-75 = system: SNB-75
SR = system: SR
SW-620 = system: SW-620
T47D = system: T47D
TK-10 = system: TK-10
U-251 = system: U-251
UACC-257 = system: UACC-257
UACC-62 = system: UACC-62
UO-31 = system: UO-31
CCRF-CEM = system: CCRF-CEM
RPMI-8226 = system: RPMI-8226

Measured: GI50

CCOC(=O)c1ccc(/N=C/C=C(\Nc2ccc(C(=O)OCC)cc2)C23CC4CC(CC(C4)C2)C3)cc1
active: MOLT-4 < 0.01 µM
inactive: 786-0 56.1 µM | A498 38.4 µM | A549 50.6 µM | ACHN 93.1 µM | BT-549 > 100 µM | CAKI-1 > 100 µM | COLO 205 45 µM | DU-145 55.1 µM | EKVX 48.4 µM | HCC 2998 91.2 µM | HCT-116 56.5 µM | HL-60 3.27 µM | HOP-62 > 100 µM | HOP-92 15.8 µM | HT-29 26.5 µM | Hs-578T > 100 µM | IGROV-1 > 100 µM | K562 4.05 µM | KM12 43.5 µM | LOX IMVI 95.3 µM | M14 35.8 µM | MCF7 43.9 µM | MDA-MB-231 > 100 µM | MDA-MB-435 89.7 µM | MDA-N 61.1 µM | Malme-3M > 100 µM | NCI-H226 > 100 µM | NCI-H23 54 µM | NCI-H460 42.2 µM | NCI-H522 > 100 µM | NCI/ADR-RES > 100 µM | OVCAR-3 > 100 µM | OVCAR-4 70 µM | OVCAR-5 35.8 µM | OVCAR-8 44.3 µM | PC-3 51.1 µM | RXF 393 27 µM | SF-268 > 100 µM | SF-295 52.1 µM | SF-539 28.2 µM | SK-MEL-28 > 100 µM | SK-MEL-2 > 100 µM | SK-MEL-5 30.6 µM | SK-OV-3 > 100 µM | SN12C 53.2 µM | SNB-19 > 100 µM | SNB-75 65.6 µM | SR 11.1 µM | SW-620 27.5 µM | T47D 18.3 µM | TK-10 71.6 µM | U-251 > 100 µM | UACC-257 35.9 µM | UACC-62 31 µM | UO-31 3.43 µM
92.3 µM: HCT-15

Cc1cc2nc(C#N)c(N3CCN(c4ccc([N+](=O)[O-])cc4)CC3)nc2cc1C
> 100 µM: HCT-15
inactive: 786-0 52.7 µM | A498 > 75.2 µM | A549 > 100 µM | ACHN > 71.3 µM | BT-549 > 100 µM | CAKI-1 > 70 µM | CCRF-CEM > 100 µM | COLO 205 > 100 µM | DU-145 > 100 µM | EKVX > 100 µM | HCC 2998 > 100 µM | HCT-116 > 68.4 µM | HOP-62 40.6 µM | HOP-92 50.4 µM | HT-29 > 88.5 µM | Hs-578T 29.1 µM | IGROV-1 > 100 µM | K562 > 100 µM | KM12 > 100 µM | LOX IMVI > 100 µM | M14 > 95.9 µM | MCF7 > 72.8 µM | MDA-MB-231 > 100 µM | MDA-MB-435 > 100 µM | MDA-N > 79.3 µM | Malme-3M > 100 µM | NCI-H226 > 100 µM | NCI-H23 > 64.9 µM | NCI-H460 > 85.9 µM | NCI-H522 > 54.1 µM | NCI/ADR-RES > 79.1 µM | OVCAR-3 > 100 µM | OVCAR-4 73.6 µM | OVCAR-5 > 100 µM | OVCAR-8 > 56.2 µM | PC-3 > 100 µM | RPMI-8226 > 57.3 µM | RXF 393 > 72.9 µM | SF-268 > 57.7 µM | SF-295 > 50.5 µM | SF-539 26.1 µM | SK-MEL-28 > 100 µM | SK-MEL-2 > 100 µM | SK-MEL-5 > 100 µM | SK-OV-3 > 69.5 µM | SN12C > 92.7 µM | SNB-19 67 µM | SNB-75 63.5 µM | SR > 100 µM | SW-620 > 100 µM | T47D 66.2 µM | TK-10 > 66.5 µM | U-251 > 74.6 µM | UACC-257 > 100 µM | UACC-62 > 79.1 µM | UO-31 > 93.8 µM

O=[N+]([O-])c1nccn1CCCNCCCn1ccnc1[N+](=O)[O-]
inactive: 786-0 > 100 µM | A498 > 100 µM | A549 > 100 µM | ACHN > 100 µM | BT-549 > 100 µM | CAKI-1 > 100 µM | CCRF-CEM > 100 µM | COLO 205 > 100 µM | DU-145 > 100 µM | EKVX > 100 µM | HCT-116 > 100 µM | HL-60 > 100 µM | HOP-62 > 100 µM | HOP-92 > 100 µM | HT-29 85.9 µM | Hs-578T > 100 µM | IGROV-1 > 100 µM | K562 > 100 µM | KM12 > 100 µM | LOX IMVI 74.6 µM | M14 > 100 µM | MCF7 > 100 µM | MDA-MB-231 > 100 µM | MDA-MB-435 > 100 µM | MDA-N > 100 µM | MOLT-4 > 100 µM | Malme-3M 36.6 µM | NCI-H226 > 100 µM | NCI-H23 > 100 µM | NCI-H460 > 100 µM | NCI-H522 > 100 µM | NCI/ADR-RES > 100 µM | OVCAR-3 > 100 µM | OVCAR-4 > 100 µM | OVCAR-5 > 100 µM | OVCAR-8 > 100 µM | PC-3 > 100 µM | RPMI-8226 > 100 µM | RXF 393 > 100 µM | SF-268 > 100 µM | SF-295 > 100 µM | SF-539 > 100 µM | SK-MEL-28 > 100 µM | SK-MEL-2 > 100 µM | SK-MEL-5 > 100 µM | SK-OV-3 > 100 µM | SN12C > 100 µM | SNB-75 > 100 µM | SR > 100 µM | SW-620 > 100 µM | T47D > 100 µM | TK-10 > 100 µM | U-251 > 100 µM | UACC-257 > 100 µM | UACC-62 > 100 µM | UO-31 > 100 µM
> 100 µM: HCT-15

COc1cccc(/C=C/c2cnc3ccccc3n2)c1OC
27.5 µM: HCT-15
inactive: 786-0 39.1 µM | A498 40.4 µM | A549 40.7 µM | ACHN 50.1 µM | BT-549 17.4 µM | CAKI-1 45.2 µM | CCRF-CEM 35.6 µM | COLO 205 48.3 µM | DU-145 60.7 µM | EKVX 33 µM | HCT-116 30.1 µM | HL-60 34.4 µM | HOP-62 24.7 µM | HOP-92 23.7 µM | HT-29 26.4 µM | Hs-578T 19.1 µM | IGROV-1 39.1 µM | K562 71 µM | KM12 30.8 µM | LOX IMVI 36.6 µM | M14 46.2 µM | MCF7 25.9 µM | MDA-MB-231 22 µM | MDA-MB-435 32 µM | MDA-N 61.1 µM | MOLT-4 12.9 µM | Malme-3M 34.5 µM | NCI-H226 37.2 µM | NCI-H23 31.9 µM | NCI-H460 24.8 µM | NCI-H522 17 µM | NCI/ADR-RES 18.5 µM | OVCAR-3 37.2 µM | OVCAR-4 25.6 µM | OVCAR-5 72.6 µM | OVCAR-8 29.7 µM | PC-3 25.1 µM | RPMI-8226 41.8 µM | RXF 393 21.8 µM | SF-268 31.3 µM | SF-295 46.1 µM | SF-539 45.7 µM | SK-MEL-28 44.2 µM | SK-MEL-2 28.8 µM | SK-MEL-5 17.1 µM | SK-OV-3 71.6 µM | SN12C 39.5 µM | SNB-75 13.4 µM | SR > 100 µM | SW-620 52.1 µM | T47D 23.2 µM | TK-10 50.5 µM | U-251 39.3 µM | UACC-257 37.4 µM | UACC-62 28.4 µM | UO-31 34.1 µM
